Measured values as given in US10761088B2, “Method for identifying histone tail proteolysis” (University of Southern California, priority 2016, dated 2020).
“Also recorded” adds a separate entry of the source.

Experiments:
[1] = test system: H3NT proteolysis in OCP-induced cells; experiment: H3NT cleavage in OCP-induced cells (Western blot of chromatin with H3CT antibody); assay type: cell-based; details: RANKL-induced primary mouse OCP cells; shRNA transduction or 10 nM MMP-9-INI or 1.6 μM C646 for 3 days prior to differentiation; versus control shRNA or DMSO
[2] = target: T1, H3NT protease activity (MMP-9) of purified fractions #3-5 from 3-day OCP-induced cells (Mus musculus, UniProt P41245); experiment: In vitro H3NT cleavage assay of purified nuclear fractions #3-5 with protease inhibitors (rH3 substrate, Western blot with H3CT antibody); assay type: biochemical; details: fractions incubated with protease inhibitors, Western blot with H3CT antibody (FIG. 1D, 1E)
T1 construct: both the pro- and active-forms of MMP-9 were detected in the nuclear compartment of 1-day OCP-induced cells; endogenous in cells; host or cells: primary mouse (C57BL/6) bone-marrow-derived OCP cells induced with RANKL; nuclear extracts / lysates
T1 sequence (P41245 108-730): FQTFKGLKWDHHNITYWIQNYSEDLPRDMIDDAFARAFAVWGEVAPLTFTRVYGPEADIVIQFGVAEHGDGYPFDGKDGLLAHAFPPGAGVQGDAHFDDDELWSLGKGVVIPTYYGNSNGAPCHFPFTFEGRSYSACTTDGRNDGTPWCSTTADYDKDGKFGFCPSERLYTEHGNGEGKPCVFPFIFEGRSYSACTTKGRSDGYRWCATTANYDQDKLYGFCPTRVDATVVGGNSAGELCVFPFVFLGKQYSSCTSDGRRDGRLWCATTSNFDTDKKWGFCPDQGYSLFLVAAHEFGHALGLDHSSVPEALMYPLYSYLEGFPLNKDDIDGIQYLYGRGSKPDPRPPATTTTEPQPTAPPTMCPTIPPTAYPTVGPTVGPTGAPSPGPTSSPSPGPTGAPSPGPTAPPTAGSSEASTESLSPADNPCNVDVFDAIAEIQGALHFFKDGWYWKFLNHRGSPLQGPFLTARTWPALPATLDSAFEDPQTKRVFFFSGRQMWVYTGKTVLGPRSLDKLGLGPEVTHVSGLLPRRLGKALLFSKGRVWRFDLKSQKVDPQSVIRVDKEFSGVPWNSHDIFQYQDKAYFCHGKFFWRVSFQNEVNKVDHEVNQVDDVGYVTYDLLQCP
Text: (§1) To identify the protease responsible for H3NT cleavage observed in preosteoclasts, nuclear extracts from 3-day OCP-induced cells were fractionated by a series of chromatography steps (FIG. 1C). An in vitro H3NT cleavage assay was developed using a recombinant H3 (rH3) substrate and Western blot analysis with the H3CT antibody to track and isolate nuclear fractions containing H3NT protease activity. […] These fractions were combined and fractionated on a Q-sepharose column where, again, H3NT protease activity was largely restricted to two sequential fractions, BR100 and BR200. The fractions were combined for glycerol gradient sedimentation resulting in the final purification of fractions (#3-5) containing H3NT protease activity. […]
(§2) His-tagged proteins were generated in Rosetta 2 (DE3) pLysS E. coli (Novagen) and purified as previously described (Kim et al. 2008). […] Peptides were incubated with rMMP-9 at seven different concentrations (0, 25, 50, 100, 150, 200, and 250 µM) in cleavage buffer, the reactions stopped by adding 20 mM o-phenanthroline (Sigma) and peptide hydrolysis was measured by adding 5 mM fluorescamine followed by detection at λex 365 nm and λem 450 nm using a Plate Chameleon spectrofluorometer (Hidex). Kinetic parameters were determined by Michaelis-Menten analysis. […]

[3] = test system: Nfatc1, Lif and Xpr1 expression; experiment: RT-qPCR of osteoclastogenic genes Nfatc1, Lif and Xpr1 in 3-day OCP cells; assay type: cell-based, mouse; details: 3-day OCP-induced cells, with RANKL (FIG. 7B, 14)
Text: FIGS. 7A-7D. […] Distribution of H3NT-cleaved genes dependent on MMP-9 for activation (light) or repression (black) in 3-day OCP-induced cells (right). […] Enrichments were plotted relative to non-induced control shRNA OCP cells (first column) (y-axis). Star indicates H3NT cleavage.
FIG. 14. […] RT-qPCR was used to quantitatively measure fold expression changes (y-axis) of the osteoclastogenic genes Nfatc1, Lif and Xpr1 relative to non-induced control after normalization to β-actin expression.
To broadly examine the association between H3NT cleavage and gene expression, the RNA-Seq data was analyzed for the 1,233 H3NT-cleaved genes identified in control and MMP-9 depleted 3-day OCP-induced cells. […] To further investigate the MMP-9-dependent activation of these genes during osteoclastogenesis, RT-qPCR was performed in OCP cells transduced with a control or MMP-9-specific shRNA, or treated with DMSO control or a selective MMP-9 inhibitor, and cultured with or without RANKL for 3 days. […]
qPCR was performed using PerfeCta® SYBR Green FastMix (Quanta BIOSCIENCES) and an iCycler IQ5 (Bio-Rad). […] Specificity of amplification was determined by melting curve analysis and all samples were run in triplicate with results averaged.

[4] = test system: recombinant H3 (rH3); experiment: In vitro H3NT cleavage assay using recombinant proteases; assay type: biochemical; details: recombinant MMP-9, USP14, USP39 and DIM1 tested (FIG. 1G)
Text: as §1, §2

Row | Compound | H3NT proteolysis / cleavage in OCP-induced cells [1] | H3NT protease activity of purified fractions #3-5 [2] | Nfatc1, Lif and Xpr1 activation (fold expression, normalized to β-actin) [3] | H3NT protease activity of recombinant proteases [4]
1 | CC1=NN(c2ccc(C(=O)O)cc2)C(=O)/C1=C\c1ccc(-c2cc(C)c(C)cc2[N+](=O)[O-])o1 [selective CBP/p300 inhibitor, C646] | sustained impairment of H3NT proteolysis |  |  | 
2 | CCN(CC)Cc1cc(C)c(N(Cc2ccccc2)S(=O)(=O)c2ccc(OC)cc2)c(C(=O)NO)c1 [selective MMP-9 inhibitor] | continuous impairment of H3NT cleavage; also recorded: Ablation of H3NT cleavage | abolished H3NT proteolysis | significantly impaired Nfatc1, Lif and Xpr1 activation | 
3 | rMMP-9: His-tagged recombinant MMP-9 (aa1115-730 as printed) purified from E. coli inclusion bodies and refolded |  |  |  | possessed H3NT protease activity
